Consider 2 compounds from BindingDB's records for doi:10.1016/j.ejmech.2023.115180 (Damanhour University, 2023).

The nature of the test: Inhibition of LOX (unknown origin) using arachidonic/linoleic acid as substrate preincubated for 5 mins followed by substrate addition measured after 10 mins by absorbance based assay.

Turning to `Nc1c(C(=O)N/N=C/c2ccccc2)cnn1-c1ccc(S(N)(=O)=O)cc1`, the IC50 amounted to 2400 nM.

Regarding `Nc1c(C(=O)N/N=C/c2cccs2)cnn1-c1ccc(S(N)(=O)=O)cc1`, the midpoint of inhibition, the IC50, lay at 2500 nM.
